From US9149465B2, “Isoxazolines as inhibitors of fatty acid amide hydrolase” (Infinity Pharmaceuticals, Inc., priority 2009, dated 2015)

Target: T1, human FAAH (Homo sapiens, UniProt O00519)
T1 construct: host or cells: COS-7 cells, transient transfection; 13,000 g membrane fraction solubilised in 1% Triton X-100
T1 sequence (O00519 1-579): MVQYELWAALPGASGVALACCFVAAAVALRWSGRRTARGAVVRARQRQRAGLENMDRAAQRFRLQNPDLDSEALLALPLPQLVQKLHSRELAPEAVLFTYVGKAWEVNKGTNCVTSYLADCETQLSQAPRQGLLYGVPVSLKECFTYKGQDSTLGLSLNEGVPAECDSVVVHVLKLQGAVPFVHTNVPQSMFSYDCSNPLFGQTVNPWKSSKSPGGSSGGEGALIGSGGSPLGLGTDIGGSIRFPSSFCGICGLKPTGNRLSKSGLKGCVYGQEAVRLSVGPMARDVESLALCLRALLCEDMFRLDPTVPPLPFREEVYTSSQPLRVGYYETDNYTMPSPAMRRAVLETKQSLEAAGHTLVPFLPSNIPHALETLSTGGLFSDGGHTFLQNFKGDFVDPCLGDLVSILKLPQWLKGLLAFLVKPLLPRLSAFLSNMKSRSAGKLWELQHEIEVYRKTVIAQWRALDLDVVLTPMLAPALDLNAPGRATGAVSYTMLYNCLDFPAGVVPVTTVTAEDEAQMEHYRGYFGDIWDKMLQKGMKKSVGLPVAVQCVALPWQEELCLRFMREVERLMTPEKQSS
Experiment: Inhibition of human FAAH (AMC arachidonoyl amide fluorescence assay)
Assay type: biochemical
Conditions: inhibitor preincubated 30 minutes at room temperature; 20 μM AMC arachidonoyl amide; 4 hours; read-out: Activity (Ki, inhibitors of human FAAH)
Method: Human FAAH Preparation: COS-7 cells were split the day before, 1:5 into 150 mm x […] cell culture dishes (Corning Inc., Cat. No. 430599). Transient transfection took place at 30-40% confluency according to FuGENE 6 Transfection Reagent (Roche, Cat. No. 11814 443 001).
Transfection Procedure: The FuGENE transfection 6 reagent (45 uL) was added to 1410 μL of media (DMEM, serum free without pen/strep) in a 15 mL conical tube and incubated at room temp for 5 minutes, followed by the addition of FAAH plasmid DNA (15 μg) (OriGene Cat. No. TC119221, Genbank Accession No. NM_001441.1, 0.67 ug/uL) and a further incubation of 15 minutes at room temperature. The resulting solution was added into one dish of 30-40% confluent COS-7 cells in a drop-wise manner. The COS-7 cell dish was subsequently incubated for 48 hours. The cells are then harvested.
Harvest procedure: Media was aspirated from the dishes and the cells rinsed with 10 mL PBS. The PBS was removed and 3 mL of PBS added to the dish. The dish was scraped to resuspend the cells, and the subsequent cell suspension collected into a 15 mL conical tube. The cells were pelleted by centrifugation at 1200 rpm for 5 minutes in a bench top centrifuge. PBS was removed and the cell pellet snap frozen in liquid nitrogen and stored at −80° C.
COS-7 cells —FAAH purification: • (1) Fractionation: Frozen cell pellets from transient transfections were thawed on ice and resuspended in 12.5 mM Hepes pH 8.0, 100 mM NaCl, 1 mM EDTA (10 mL/0.2 g cell pellet). The pellets were dounce homogenized and then sonicated to produce cell extract. The cell extract was subsequently centrifuged at 1000 g to remove cellular debris. The pellet was discarded and the supernatant centrifuged at 13,000 g for 20 minutes. The pellet contained membrane bound FAAH. The supernatant was discarded and the pellet resolubilized. • (2) Re-solubilization: The fraction of interest, (13,000 g, membrane fraction) was re-suspended in 2.3 mL re-suspension buffer (20 mM Hepes pH 7.8, 10% v/v Glycerol, 1 mM EDTA, 1% Triton X-100) and the sample incubated on ice for 1 hour and then centrifuged to remove any particulate matter. The supernatant containing solubilized human FAAH was aliquoted and snap frozen in liquid nitrogen and stored at −80° C. until use. • (3) Characterization: Protein Concentration determined by Bradford assay. • SDS gel and Western blot to confirm presence of FAAH • FAAH activity assay • Km determination-96-well assay • Linear dependence—96-well assay • Standard compound Ki determination—384-well assay
Human FAAH assay; Experimental Protocol: A 0.1 mg/mL Human FAAH solution was made up in FAAH reaction buffer, and 24 ul pipeted into a 384 well plate. To this was added 1 μL of a 3 fold serially diluted inhibitor from a DMSO stock solution. The FAAH solution and inhibitor were incubated for 30 minutes at room temperature. The FAAH reaction was initiated by the addition of 25 μL of 40 μM AMC Arachidonoyl Amide in FAAH reaction buffer, yielding a final reaction human FAAH preparation concentration of 0.05 mg/ml and AMC-Arachidonoyl substrate concentration of 20 μM, reaction volume 50 μL. The reaction was allowed to proceed for 4 hours at room temperature. The reaction was stopped by the addition of 25 μL 12 μM a-ketoheterocycle (Cayman Chemicals, catalogue #10435). The microtiter plate was read in the envision plate reader.
The raw fluorescence was plotted on the y axis and the inhibitor concentration on the x axis to give a dose response inhibition curve. The data was fitted to a single site competitive inhibition equation, fixing the Km for the human enzyme to 12 μM and 9 μM respectively.

Ki	Structure (SMILES)
100 to 1000 nM	O=C(c1ccc([C@H]2CC(Br)=NO2)cc1)N1CCOCC1 (racemic) [I-202]
≥ 1000 nM	CC1(c2ccc(OC(F)(F)F)cc2)CC(n2cnc(C(=O)O)n2)=NO1 (racemic) [I-171]
≤ 100 nM	CC1(c2ccc(OC(F)(F)F)cc2)CC(Oc2ccc(-c3ccn[nH]3)nc2)=NO1 (racemic) [I-242]
≤ 100 nM	CN(C)C(=O)c1ccc(OC2=NOC(c3ccc(Oc4ccccc4)cc3)C2)cn1 (racemic) [I-111]
≤ 100 nM	c1ccc(Oc2ccc(C3CC(Oc4cncnc4)=NO3)cc2)cc1 (single isomer, unassigned) [I-41]
100 to 1000 nM	Clc1cccc(C2CC(Br)=NO2)c1 (single isomer, unassigned) [I-4]
100 to 1000 nM	CCOC(=O)c1cccc(-c2ccc(OC3=NOC(c4ccc(OC(F)(F)F)cc4)C3)cn2)c1 (racemic) [I-84]
≤ 100 nM	CS(=O)(=O)c1ccc(OC2=NOC(c3ccc(OC(F)(F)F)cc3)C2)cn1 (racemic) [I-135]
100 to 1000 nM	CN(C)C(=O)c1ccc(C2CC(Oc3ccc(S(C)(=O)=O)nc3)=NO2)cc1 (racemic) [I-212]
≥ 1000 nM	N[S@SP3](=O)(=O)c1cccc(OC2=NOC(c3ccc(Oc4ccccc4)cc3)C2)c1 (racemic) [I-64]
100 to 1000 nM	C#CCOc1ccc([C@H]2CC(Oc3cncnc3)=NO2)cc1 (racemic) [I-143]
≤ 100 nM	O=C(O)c1ccc(OC2=NOC(c3ccc(OC(F)(F)F)cc3)C2)cn1 (racemic) [I-97]
≥ 1000 nM	Cc1noc(-c2cccc(OC3=NOC(c4ccc(OC(F)(F)F)cc4)C3)c2)n1 (racemic) [I-199]
100 to 1000 nM	Cn1nnc(-c2ccc(OC3=NOC(c4ccc(OC(F)(F)F)cc4)C3)cc2)n1 (racemic) [I-200]
100 to 1000 nM	Cn1nc(C(F)(F)F)cc1OC1=NOC(c2ccc(Oc3ccccc3)cc2)C1 (racemic) [I-257]
≤ 100 nM	Fc1ccc(OC2=NOC(c3ccc(OC(F)(F)F)cc3)C2)cc1-c1nnco1 (racemic) [I-226]
≤ 100 nM	NS(=O)(=O)c1ccc(OC2=NOC(c3ccc(Oc4ccccc4)cc3)C2)cc1 (racemic) [I-90]
≤ 100 nM	CC1(c2ccc(OC(F)(F)F)cc2)CC(Oc2ccc(F)c(-c3nnco3)c2)=NO1 (racemic) [I-227]
≤ 100 nM	COC(=O)c1cncc(OC2=NOC(c3ccc(Oc4ccccc4)cc3)C2)c1 (single isomer, unassigned) [I-39]
≥ 1000 nM	COc1ccccc1C1CC(Br)=NO1 (single isomer, unassigned) [I-8]
≤ 100 nM	CS(=O)(=O)NC(=O)c1ccc(OC2=NOC(c3ccc(OC(F)(F)F)cc3)C2)cn1 (racemic) [I-220]
≤ 100 nM	CC1(c2ccc(Oc3ccccc3)cc2)CC(Br)=NO1 (racemic) [I-76]
≥ 1000 nM	O=C(O)c1cncc(OC2=NOC(c3ccc(OC(F)(F)F)cc3)C2)c1 (racemic) [I-55]
≥ 1000 nM	O=c1ccccn1C1=NOC(c2ccc(Oc3ccccc3)cc2)C1 (single isomer, unassigned) [I-33]
≤ 100 nM	Cc1nnc(-c2cccc(OC3=NOC(c4ccc(Oc5ccccc5)cc4)C3)c2)o1 (racemic) [I-160]
≤ 100 nM	FC1(F)Oc2ccc(C3CC(Br)=NO3)cc2O1 (racemic) [I-126]
100 to 1000 nM	FC(F)(F)Oc1ccc(C2CC(Oc3cncc(-c4ccccc4)c3)=NO2)cc1 (racemic) [I-72]

Ki	Structure (SMILES)
≤ 100 nM	CN(C)S(=O)(=O)c1ccc([C@H]2CC(Br)=NO2)cc1 (racemic) [I-206]
≤ 100 nM	COC(=O)c1cccc(OC2=NOC(c3ccc(Oc4ccccc4)cc3)C2)c1 (racemic) [I-61]
100 to 1000 nM	N#Cc1cccc(OC2=NOC(c3ccc(Oc4ccccc4)cc3)C2)c1 (racemic) [I-58]
≥ 1000 nM	c1ccc(Oc2ccc(C3CC(n4cccn4)=NO3)cc2)cc1 (single isomer, unassigned) [I-35]
100 to 1000 nM	O=C(O)c1ccc(OC2=NOC(c3ccc(OC(F)(F)F)cc3)C2)cc1 (racemic) [I-177]
≤ 100 nM	FC(F)(F)Oc1ccc([C@H]2CC(Br)=NO2)cc1Cl (racemic) [I-124]
≤ 100 nM	BrC1=NOC(c2cccc(Oc3ccccc3)c2)C1 (single isomer, unassigned) [I-11]
≤ 100 nM	CS(=O)(=O)c1ccc(OC2=NOC(c3ccc(C(F)(F)F)cc3)C2)cn1 (racemic) [I-169]
≤ 100 nM	CNS(=O)(=O)c1ccc([C@H]2CC(Br)=NO2)cc1 (racemic) [I-207]
≤ 100 nM	CC1(c2ccc(OC(F)(F)F)cc2)CC(Oc2ccc(-c3nccs3)nc2)=NO1 (racemic) [I-164]
≥ 1000 nM	FC(F)(F)Oc1ccc(C2CC(Sc3ccccc3)=NO2)cc1 (racemic) [I-248]
≤ 100 nM	Cc1ccc(-c2ccc(OC3=NOC(c4ccc(OC(F)(F)F)cc4)C3)cn2)o1 (racemic) [I-187]
100 to 1000 nM	c1ccc(C2CC(Oc3cncnc3)=NO2)cc1 (racemic) [I-166]
≤ 100 nM	Cc1nnc(-c2ccc(OC3=NOC(C)(c4ccc(OC(F)(F)F)cc4)C3)cn2)o1 (racemic) [I-156]
≤ 100 nM	Cn1nccc1-c1ccc(OC2=NOC(c3ccc(OC(F)(F)F)cc3)C2)cn1 (racemic) [I-189]
100 to 1000 nM	O=S(=O)(c1ccc(OC2=NOC(c3ccc(OC(F)(F)F)cc3)C2)cn1)C1CCCC1 (racemic) [I-183]
≤ 100 nM	CCC1(c2ccc(Oc3ccccc3)cc2)CC(Br)=NO1 (racemic) [I-95]
100 to 1000 nM	O=[N+]([O-])c1ccc(OC2=NOC(c3ccc(Oc4ccccc4)cc3)C2)cc1 (single isomer, unassigned) [I-29]
≤ 100 nM	FC(F)(F)Oc1ccc(C2CC(Oc3cncc(Br)c3)=NO2)cc1 (racemic) [I-71]
≤ 100 nM	c1ccc(Oc2ccc(C3CC(Oc4cnc5ccoc5c4)=NO3)cc2)cc1 (racemic) [I-69]
100 to 1000 nM	NC(=O)c1cncc(OC2=NOC(c3ccc(OC(F)(F)F)cc3)C2)c1 (racemic) [I-53]
≤ 100 nM	Cc1nnc(-c2ccc(OC3=NOC(c4ccc(Oc5ccccc5)cc4)C3)cc2)o1 (racemic) [I-159]
100 to 1000 nM	BrC1=NOC(COCCc2ccccc2)C1 (single isomer, unassigned) [I-52]
≤ 100 nM	N#Cc1ccc(OC2=NOC(c3ccc(Oc4ccccc4)cc3)C2)cc1 (single isomer, unassigned) [I-27]
≤ 100 nM	C#CCOc1ccc([C@H]2CC(Oc3ccc(C(=O)OC)nc3)=NO2)cc1 (racemic) [I-144]
100 to 1000 nM	CC1(c2ccc(OC(F)(F)F)cc2)CC(Oc2ccc(S(C)(=O)=O)cc2)=NO1 (racemic) [I-234]
100 to 1000 nM	CC1(c2ccc(OC(F)(F)F)cc2)CC(Oc2ccc(C(=O)NCC(F)(F)F)nc2)=NO1 (racemic) [I-116]
